Test results from publication PMC7594867 (Journal of Enzyme Inhibition and Medicinal Chemistry, 2020).
Where two headings read alike, the source gives them in different places.

Key:
[1] = system: A2780; experiment: MTT cytotoxicity assay, A2780; type: cell-based; settings: for IC50: Homo sapiens, A2780, 72 h, read-out: IC50 ± SD, A2780; for Selectivity index, A2780: IC50 MRC-5 / IC50 A2780
[2] = system: HT29; experiment: MTT cytotoxicity assay, HT29; type: cell-based; settings: for IC50: Homo sapiens, HT-29, 72 h, read-out: IC50 ± SD, HT29; for Selectivity index, HT29: IC50 MRC-5 / IC50 HT29
[3] = system: MCF-7, A2780, and HT29 cell lines; experiment: MTT cytotoxicity assay, three cancer cell lines taken together; type: cell-based
[4] = system: normal human foetal lung fibroblast (MRC-5); experiment: MTT cytotoxicity assay, normal MRC-5 cells; type: cell-based; settings: MRC5, 72 h, read-out: IC50 (µM ± SD) MRC-5
[5] = system: MCF-7; experiment: MTT cytotoxicity assay, MCF-7; type: cell-based; settings: for IC50: Homo sapiens, MCF7, 72 h, read-out: IC50 ± SD, MCF-7; for Selectivity index, MCF-7: IC50 MRC-5 / IC50 MCF-7
[6] = system: MCF-7 cells; experiment: Annexin V-FITC/PI staining apoptosis assay; type: cell-based; settings: MCF-7, 24 h, control 0%
[7] = biological target: CDK-2 (Homo sapiens, UniProt P24941); experiment: CDK-2 inhibition, ADP-Glo kinase assay; type: biochemical
[8] = system: MCF-7 cells; experiment: Cell cycle analysis; type: cell-based; settings: for effect on cell cycle: MCF-7, 24 h, 1, 5, 10 µM; for number of cells in the G1 cell-cycle phase: MCF-7, 24 h, highest increase, concentration not given
[9] = 72 h, read-out: IC50, range over the three cancer cell lines

IC50 [7] [µM]	Structure (SMILES)	IC50 [1] [µM]	Selectivity index, A2780 [1]	IC50 [2] [µM]	Selectivity index, HT29 [2]	IC50 ([3]; read-out: Average IC50) [µM]	IC50 [4] [µM]	IC50 [5] [µM]	Selectivity index, MCF-7 [5]	apoptotic events ([6]; 1 µM) [%]	apoptotic events ([6]; 5 µM) [%]	apoptotic events ([6]; 10 µM) [%]	effect on cell cycle [8]	number of cells in the G1 cell-cycle phase [8] [%]	IC50 [3, 9] [µM]	Selectivity index, range over the three cell lines ([3]; IC50 MRC-5 / IC50 cancer cell line)
–	N#Cc1c(NC(=O)Nc2cccc3ccccc23)c(C(=O)Nc2ccc(Cl)cc2)n2c1CCC2 [Compound 19c, N-(4-Chlorophenyl)-7-cyano-6-(3-(naphthalen-1-yl)ureido)-2,3-dihydro-1H-pyrrolizine-5-carboxamide]	3.07 ± 1.5	0.87	2.56 ± 0.7	1.05	2.3	2.68 ± 0.37	1.27 ± 0.01	2.11	–	–	–	–	–	–	–
–	N#Cc1c(NC(=O)Nc2ccc(F)cc2)c(C(=O)Nc2ccc(Cl)cc2)n2c1CCC2 [Compound 18c, N-(4-Chlorophenyl)-7-cyano-6-(3-(4-fluorophenyl)ureido)-2,3-dihydro-1H-pyrrolizine-5-carboxamide]	0.21 ± 0.1	0.48	1.38 ± 0.02	0.07	0.63	0.1 ± 0.01	0.29 ± 0.19	0.34	–	–	–	–	–	–	–
–	COc1ccc(NC(=O)Nc2c(C#N)c3n(c2C(=O)Nc2ccc(Cl)cc2)CCC3)cc1 [Compound 17c, N-(4-Chlorophenyl)-7-cyano-6-(3-(4-methoxyphenyl)ureido)-2,3-dihydro-1H-pyrrolizine-5-carboxamide]	0.54 ± 0.02	7.04	0.42 ± 0.16	9.05	1.44	3.8 ± 0.25	3.36 ± 0.83	1.13	–	–	–	–	–	–	–
0.0779 ± 0.0022	N#Cc1c(NC(=S)Nc2cccc3ccccc23)c(C(=O)Nc2ccccc2)n2c1CCC2 [Compound 20a, 7-Cyano-6-(3-(naphthalen-1-yl)thioureido)-N-phenyl-2,3-dihydro-1H-pyrrolizine-5-carboxamide]	0.16 ± 0.01	2.69	0.72 ± 0.12	0.60	0.43	0.43 ± 0.13	0.42 ± 0.15	1.02	38	39	47	G1 -S cell cycle arrest	57	–	–
–	COc1ccc(NC(=O)Nc2c(C#N)c3n(c2C(=O)Nc2ccccc2)CCC3)cc1 [Compound 17a, 7-Cyano-6-(3-(4-methoxyphenyl)ureido)-N-phenyl-2,3-dihydro-1H-pyrrolizine-5-carboxamide]	0.44 ± 0.03	5.23	5.29 ± 1.51	0.43	2.21	2.3 ± 0.15	0.9 ± 0.11	2.56	–	–	–	–	–	–	–
–	N#Cc1c(NC(=S)Nc2cccc3ccccc23)c(C(=O)Nc2ccc(Cl)cc2)n2c1CCC2 [Compound 20c, N-(4-chlorophenyl)-7-cyano-6-(3-(naphthalen-1-yl)thioureido)-2,3-dihydro-1H-pyrrolizine-5-carboxamide]	2.81 ± 0.98	1.04	3.67 ± 1.65	0.80	2.75	2.92 ± 0.6	1.76 ± 0.95	1.66	–	–	–	–	–	–	–
–	CS(=O)(=O)CCNCc1ccc(-c2ccc3ncnc(Nc4ccc(OCc5cccc(F)c5)c(Cl)c4)c3c2)o1 [Lapatinib, lapatinib, reference compound]	10.5 ± 0.76	0.64	12.5 ± 1.27	0.54	9.92	6.74 ± 1.22	6.77 ± 1.16	1.00	–	–	–	–	–	6.77 to 12.5	–
–	Cc1ccc(NC(=O)c2c(NC(=O)Nc3cccc4ccccc34)c(C#N)c3n2CCC3)cc1 [Compound 19b, 7-Cyano-6-(3-(naphthalen-1-yl)ureido)-N-(p-tolyl)-2,3-dihydro-1H-pyrrolizine-5-carboxamide]	5.39 ± 1.13	0.29	0.68 ± 0.14	2.26	2.17	1.54 ± 0.2	0.44 ± 0.09	3.50	–	–	–	–	–	–	–
–	COc1ccc(NC(=O)Nc2c(C#N)c3n(c2C(=O)Nc2ccc(C)cc2)CCC3)cc1 [Compound 17b, 7-Cyano-6-(3-(4-methoxyphenyl)ureido)-N-(p-tolyl)-2,3-dihydro-1H-pyrrolizine-5-carboxamide]	0.42 ± 0.07	14.76	1.44 ± 0.17	4.31	1.57	6.2 ± 0.88	2.85 ± 0.31	2.18	–	–	–	–	–	–	–
–	N#Cc1c(NC(=O)Nc2ccc(F)cc2)c(C(=O)Nc2ccccc2)n2c1CCC2 [Compound 18a, 7-Cyano-6-(3-(4-fluorophenyl)ureido)-N-phenyl-2,3-dihydro-1H-pyrrolizine-5-carboxamide]	10.6 ± 2.83	1.01	9.13 ± 0.85	1.17	10.2	10.7 ± 0.61	10.76 ± 0.07	0.99	–	–	–	–	–	–	–
–	Cc1ccc(NC(=O)c2c(NC(=S)Nc3cccc4ccccc34)c(C#N)c3n2CCC3)cc1 [Compound 20b, 7-Cyano-6-(3-(naphthalen-1-yl)thioureido)-N-(p-tolyl)-2,3-dihydro-1H-pyrrolizine-5-carboxamide]	2.04 ± 0.95	0.98	3.83 ± 0.58	0.52	3.61	2 ± 0.75	4.97 ± 0.42	0.40	–	–	–	–	–	–	–
–	CCCCCCNC(=O)Nc1c(C#N)c2n(c1C(=O)Nc1ccccc1)CCC2 [Compound 16a, 7-Cyano-6-(3-hexylureido)-N-phenyl-2,3-dihydro-1H-pyrrolizine-5-carboxamide]	0.35 ± 0.18	33.89	0.85 ± 0.07	13.95	0.6	11.9 ± 0.87	0.59 ± 0.01	20.10	–	–	–	–	–	0.35 to 0.85	13.95–33.89
0.115 ± 0.0032	Cc1ccc(NC(=O)c2c(NC(=O)Nc3ccc(F)cc3)c(C#N)c3n2CCC3)cc1 [Compound 18b, 7-Cyano-6-(3-(4-fluorophenyl)ureido)-N-(p-tolyl)-2,3-dihydro-1H-pyrrolizine-5-carboxamide]	0.97 ± 0.14	1.51	9.71 ± 2.25	0.15	3.62	1.46 ± 0.42	0.19 ± 0.02	7.68	20	–	–	G1 -S cell cycle arrest	53	–	–
–	CCCCCCNC(=O)Nc1c(C#N)c2n(c1C(=O)Nc1ccc(Cl)cc1)CCC2 [Compound 16c, N-(4-Chlorophenyl)-7-cyano-6-(3-hexylureido)-2,3-dihydro-1H-pyrrolizine-5-carboxamide]	0.53 ± 0.1	1.42	3.1 ± 0.1	0.24	12.6	0.75 ± 0.14	34.1 ± 4.61	0.02	–	–	–	–	–	–	–
0.0255 ± 0.0017	N#Cc1c(NC(=O)Nc2cccc3ccccc23)c(C(=O)Nc2ccccc2)n2c1CCC2 [Compound 19a, 7-Cyano-6-(3-(naphthalen-1-yl)ureido)-N-phenyl-2,3-dihydro-1H-pyrrolizine-5-carboxamide]	0.32 ± 0.17	8.34	0.2 ± 0.01	13.35	0.31	2.67 ± 0.37	0.4 ± 0.42	6.68	–	–	–	G1 -S cell cycle arrest	70	–	–
–	CCCCCCNC(=O)Nc1c(C#N)c2n(c1C(=O)Nc1ccc(C)cc1)CCC2 [Compound 16b, 7-Cyano-6-(3-hexylureido)-N-(p-tolyl)-2,3-dihydro-1H-pyrrolizine-5-carboxamide]	0.23 ± 0.04	11.52	1.56 ± 0.14	1.70	0.99	2.65 ± 0.29	1.17 ± 0.31	2.26	–	–	–	–	–	–	–
